Measurements as given in US10624874B2, “Lasofoxifene modulation of membrane-initiated estrogen signals and methods for tumor treatment” (Zhejiang Jiachi Development Pharmaceuticals LTD, priority 2017, dated 2020).
Blank lines part the entries; values can stand above or below the compound they belong to.

What was measured:
H1299 cells = assay: Proliferation of H1299 lung cancer cells; assay type: cell-based
Description: (§1) A. Cell lines HBE, H1299 and H460 were cultured. Expression of EGFR, ER-α66, ER-α46, ER-α36, ER-β, GPER-1 were tested using Western blot. B. HBE cells and H460 cells were treated with 2 μM tamoxifen or 2 μM lasofoxifene. Proliferation of HBE cells and H460 cells were shown after each treatment. C. H460 cells were treated with vehicle only, or gefitinib, or lasofoxifene, or a combination of gefitinib and lasofoxifene. Proliferation of […] were shown after each treatment. D. H1299 were treated with vehicle only, or gefitinib, or lasofoxifene, or a combination of gefitinib and lasofoxifene. Proliferation of lung cancer cells was shown after each treatment.
(§2) Cells were inoculated into 24 well plates with culture medium and treated using the designated concentration of drugs. Cell number was counted using a cell counter (Count Star). The cell bio-behaviors including total cell number and movement were measured using a real-time cell monitoring system. Briefly, the image was captured at 5 min intervals for 66 h. Cell morphological parameters and the movement of each individual cell was calculated following manufacture's instruction.
(§3) We thus tested the expression of ER-α36 from lung cancer cells.

H460 cells = assay: Proliferation of H460 lung cancer cells; assay type: cell-based; details: for proliferation of H460 cells: 2 μM, ER-α36+/EGFR+ cells, FIG. 5-B
Description: as §1, §2, §3

xenograft H460 tumors = assay: Growth of xenograft H460 tumors in nude mice; assay type: in vivo; details: intragastric daily for 2-3 weeks, FIG. 7
Description: FIG. 7: Activity to Inhibition of growth of xenograft-ER-α36+/EGFR+ lung tumor (H460) in nude mice by lasofoxifene (LAS) and/or gefitinib. A. Nude mice were grafted with H460 cells. Tumor size were shown after treatment with gefitinib, 3 mg lasofoxifene per kilogram of mouse body mass (3 mg/kg, Las3.0), 1.5 mg lasofoxifene per kilogram of mouse body mass (1.5 mg/kg, Las1.5), 0.75 mg lasofoxifene per kilogram of mouse body mass (0.75 mg/kg, Las0.75), or a combination of gefitinib and 1.5 mg lasofoxifene per kilogram of mouse body mass (Gef+Las1.5). B. Statistical result of tumor mass from two repeat experiments (n≥6).* and ** mean P<0.05 and P<0.01, respectively.
H460 cells were grown in RPMI-1640 medium containing 10% FBS. When cells are 70-80% confluent and ready for experiments, replace medium with fresh medium for 3 hours. Remove medium and wash cells with medium without FBS for three times. Cells were then trypsinized and suspended in medium, equal volume of cells and support gel was mixed up to 200 μl for each injection. Cells were injected subcutaneously (s.c.) into 4-6 week old nude mice. 1.0˜2.0×10^6 H460 cells were administrated into each nude mouse. […] Tumor size were calculated by the formula: volume=(width)^2×length/2.
To verify in vitro results, we constructed xenograft H460 tumors in nude mice. The tumor size was measured using digital vernier caliper. […]

[1] = test system: tamoxifen-resistance MCF-7 cells; assay: Proliferation of acquired tamoxifen-resistance MCF-7 cells; assay type: cell-based, human; details: FIG. 4B
Description: A. MCF-7 cells were treated with tamoxifen for ten months. Expression of ER-α66, ER-α46, ER-α36, GPER-1 were tested using Western blot. B. After MCF-7 cells were treated with tamoxifen for ten months, cells were treated with either 2 μM tamoxifen or 2 μM lasofoxifene. Proliferation of MCF-7 were shown under each treatment. ** indicates P<0.01.
MCF-7 cells were grown in EMEM medium containing 10% FBS, antibiotics and 0.1 μM tamoxifen for three months. And then increase tamoxifen concentration to 0.5 μM for another three months, Finally, MCF-7 cells were grown in EMEM medium containing 10% FBS, antibiotics and 1 μM tamoxifen for four months. Tamoxifen-resistance MCF-7 cells were tested by counting cell proliferation rate when cells were grown in high concentration tamoxifen.
To verify our hypothesis that overexpressed ER-α36 variant may result in acquired de novo tamoxifen-resistance, we induced MCF-7 cells using tamoxifen for ten months. We found the expression of ER-α66 was decreased ([…], top panel). In contrast, the expression level of ER-α36 was enhanced (FIG. 4A, middle panel). The expression level of GPER1 was not affected (FIG. 4A bottom panel).

[2] = test system: Bcl-2 expression in MCF-7 cells; assay: Bcl-2 expression in MCF-7 cells by western blotting; assay type: cell-based, human; details: for effect on Bcl-2 expression in medium without estrogen: MCF-7, charcoal stripped FBS, phenol red-free EMEM, vs Blank, FIG. 2B
Description: FIG. 2: Inhibition of Bcl-2 expression in MCF-7 cells by lasofoxifene in comparison with tamoxifen. A: MCF-7 cells were cultured in either EMEM medium containing 10% FBS (Normal) or 5% charcoal striped FBS (CS) for 72 hours. Western blotting assay were performed to analyze Bcl-2 expression (CS: charcoal striped). B: MCF-7 cells were cultured in EMEM medium containing insulin and 5% charcoal striped FBS for 72 hours and then treated by lasofoxifene and tamoxifen for 48 hours. Western blotting assay were performed to analyze Bcl-2 expression. C. MCF-7 were cultured in EMEM medium containing insulin and 10% FBS for 72 hours and then treated by lasofoxifene and tamoxifen for 48 hours. Western blotting assay were performed to analyze Bcl-2 expression. […] E. Statistical analysis of three repeats of part C. N=3×3.
HEK-293, MCF-7, MDA-MB-231, HBE, H1299 and H460 cells were grown following ATCC protocol. The expression level of estrogen-bound receptors was measured using western blotting. Briefly, 80-90% confluence cells were harvested and lysed in RIPA buffer or 1×PBS containing 1% triton-x-100 and protease inhibitor cocktail. Total protein concentration was measured using Bio-rad protein staining dye. Western blotting was performed following standard protocol using nitrocellulose membrane (Millipore) and Bio-rad semi-dry transfer system. The equal amount of total protein from cell lysate was loaded to SDS-PAGE for western blotting. The expression level of ER-α36 and 66, ER-β and GPER1 was measured using antibody.
Estrogen and ER complex binds to estrogen response element (ERE) in chromosome to regulate RNA transcription. Bcl-2 is a key member of anti-apoptosis family proteins. Its overexpression has been linked to many kinds of cancers in human being. […] We first assessed whether lasofoxifene inhibited Bcl-2 expression at higher efficiency compared to tamoxifen. MCF-7 cells were grown in DMEM medium containing insulin and 10% FBS or 5% charcoal striped FBS for 72 h. Cells were then treated by lasofoxifene and tamoxifen for 48 h. We confirmed previous study that the expression of Bcl-2 protein was enhanced by culture medium containing estrogen compared with that containing charcoal-stripped (CS) FBS (FIGS. 2A and B, Blank).

ER-α = molecular target: T1, ER-α (Homo sapiens, UniProt P03372); details: cited from earlier work
T1 sequence (P03372 311-547 limits assumed): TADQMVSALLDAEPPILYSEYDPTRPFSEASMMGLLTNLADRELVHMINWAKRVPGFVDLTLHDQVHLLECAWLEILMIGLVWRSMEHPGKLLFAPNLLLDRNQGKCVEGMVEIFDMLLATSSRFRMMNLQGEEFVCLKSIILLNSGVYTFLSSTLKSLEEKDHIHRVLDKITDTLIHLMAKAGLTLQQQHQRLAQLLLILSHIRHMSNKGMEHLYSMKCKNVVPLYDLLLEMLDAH

[3] = test system: BT474 breast cancer cells; assay: Proliferation of Herceptin-resistance BT474 breast cancer cells; assay type: cell-based; details: cells treated with 10 μg/ml Herceptin 3 months; 2 μM lasofoxifene, FIG. 10B
Description: BT474 breast cancer cells were treated with 10 μg/ml Herceptin® in medium for 3 months. A. Cells positively expressed of ER-α36, and decreased the expression level of HER2.

GPER1 = molecular target: T2, GPER1 (Homo sapiens, UniProt Q99527); assay: Cytosolic Ca2+ in HEK293 cells overexpressing GPER1-EGFP (Fura-red); assay type: cell-based; details: HEK293 overexpressing GPER1-EGFP vs EGFP vector, FIG. 11B
T2 construct: expressed in transfected cells; host or cells: HEK293
Description: A. HEK293 cells were transfected with either GPER1-EGFP or EGFP alone.
The assays were performed as following. Briefly, cells were grown on a glass-bottomed perfusion chamber mounted on the stage of an inverted confocal microscope (Andor), and then incubated with 2 μM Fura-red AM (Molecular Probes, Eugene, Oreg., USA) for 60 min at 37° C. in normal culture media. Cells were then perfused continuously with Hanks' balanced salt solution (Sigma) containing 1.8 mM CaCl2 and 0.8 mM MgCl2, pH 7.4. […] Cells were perfused with complete culture media without phenol red, and Fura-red was excited at 572 nm. The fluorescence emitted at 657 nm was then collected and recorded using a CCD-based imaging system running software (Andor).

gastric cancer cells = assay: Gastric cancer cell division; assay type: cell-based; details: ER-α36 positive gastric cancer cells, FIG. 8-D
Text: (§4) A: ER-α36 was positively expressed in colon cancer cells. […] NCC: normal colon cells. CCC: colon cancer cells. C: ER-α36 was positively expressed in gastric cancer cells. […] NGC: normal gastric cells. GCC: gastric cancer cells. N=3×3; *** means P<0.001.

colon cancer cells = assay: Colon cancer cell division; assay type: cell-based; details: ER-α36 positive colon cancer cells, FIG. 8-B
Text: as §4

[4] = test system: MDA-MB231 breast cancer cells; assay: Proliferation of triple negative MDA-MB231 breast cancer cells; assay type: cell-based; details: ER-α36 positive MDA-MB231, DMEM 10% FBS, FIG. 9
Text: MDA-MB231 cells treated with lasofoxifene in DMEM medium containing 10% FBS. N=3×3; * and ** mean P<0.05 and P<0.01, respectively.

HBE cells = assay: Proliferation of HBE cells; assay type: cell-based; details: 2 μM, cells not expressing ER-α36, FIG. 5-B
Description: as §1, §2, §3

MCF-7 cells = assay: Inhibition of MCF-7 cell division, cells pre-cultured with or without insulin; assay type: cell-based, human; details: same drug compared between ER-α36 positive (insulin-free) and insulin medium cells, FIG. 3B
Description: A. MCF-7 cells were grown in insulin-free (IL-) medium for three months. Expression of ER-α66, ER-α36, ER-β and GPER were tested using Western blot. B. MCF-7 cells, after cultured in either medium with insulin or without insulin, were treated with tamoxifen or lasofoxifene. […] C. It compares IC50 (μM) of MCF-7 cells responding to tamoxifen or lasofoxifene at the condition of pre-cultured in medium without insulin. *** indicates P<0.001. D. Graph compares IC50 (μM) of MCF-7 cells responding to tamoxifen or lasofoxifene at the condition of pre-cultured in medium with insulin. * indicates P<0.05.
The transcription variant of ER-α36 lacks the AF-1 and AF2 domains. […] It was found located at plasma membrane and cytosol (Boonyaratanakornkit, V. Steroids. 2011 August; 76(9):877-84). […] Phosphorylated IRS interacts with dimer estrogen-ER complexes, which can then translocate into the nucleus and bond with ERE sequence to regulate RNA transcription through the estrogen classical nuclear pathway. […] In contrast, the expression levels of other estrogen receptors were not affected (FIG. 3A).

ER-β = ER-β (Homo sapiens, UniProt Q92731); details: higher affinity than raloxifene and tamoxifen; Gennari 2006; cited from earlier work
Chain of ER-β (Q92731 whole entry, species assumed): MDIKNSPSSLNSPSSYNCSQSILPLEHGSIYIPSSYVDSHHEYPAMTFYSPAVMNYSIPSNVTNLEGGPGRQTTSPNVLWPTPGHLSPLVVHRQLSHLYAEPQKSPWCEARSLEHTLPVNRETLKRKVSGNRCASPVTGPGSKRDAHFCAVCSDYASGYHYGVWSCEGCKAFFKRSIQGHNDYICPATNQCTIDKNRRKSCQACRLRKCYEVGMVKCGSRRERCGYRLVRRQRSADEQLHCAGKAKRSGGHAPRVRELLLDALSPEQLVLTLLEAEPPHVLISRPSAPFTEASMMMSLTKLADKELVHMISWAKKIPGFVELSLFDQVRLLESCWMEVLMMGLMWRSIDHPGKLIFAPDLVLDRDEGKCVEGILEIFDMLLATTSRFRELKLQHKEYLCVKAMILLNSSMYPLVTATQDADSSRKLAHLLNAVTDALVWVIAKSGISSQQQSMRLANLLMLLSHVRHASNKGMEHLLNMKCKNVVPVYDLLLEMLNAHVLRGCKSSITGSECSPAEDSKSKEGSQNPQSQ

T2 sequence (Q99527 whole entry, species assumed): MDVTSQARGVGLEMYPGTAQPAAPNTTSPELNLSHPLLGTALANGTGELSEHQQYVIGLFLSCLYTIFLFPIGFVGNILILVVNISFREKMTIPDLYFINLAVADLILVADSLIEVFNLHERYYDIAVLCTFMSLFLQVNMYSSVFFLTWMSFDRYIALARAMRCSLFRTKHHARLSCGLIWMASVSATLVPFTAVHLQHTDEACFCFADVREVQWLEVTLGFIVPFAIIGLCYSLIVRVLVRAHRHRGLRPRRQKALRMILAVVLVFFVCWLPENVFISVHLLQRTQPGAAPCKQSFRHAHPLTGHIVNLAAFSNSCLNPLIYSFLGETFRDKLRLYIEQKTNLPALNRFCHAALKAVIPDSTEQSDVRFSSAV

SMILES: COc1cc2ncnc(Nc3ccc(F)c(Cl)c3)c2cc1OCCCN1CCOCC1 [gefitinib]
proliferation of H1299 cells, gefitinib alone or combined (H1299 cells; concentration not given, FIG. 5D): did not inhibit H1299 cell proliferation | proliferation of H460 cells, gefitinib alone or combined (H460 cells; concentration not given, FIG. 5C): inhibited the proliferation of H460

SMILES: Oc1ccc2c(c1)CC[C@H](c1ccccc1)[C@@H]2c1ccc(OCCN2CCCC2)cc1 [lasofoxifene, (−)-cis-(5R,6S)-6-phenyl-5-[4-(2-pyrrolidin-1-ylethoxy)phenyl]-5,6,7,8-tetrahydronaphthalen-2-ol]
growth of xenograft H460 tumors (xenograft H460 tumors): inhibited the growth of xenograft H460 tumors | inhibition at 2 µM ([1]; Homo sapiens, MCF7, MCF-7 induced by tamoxifen for over 10 months, read-out: inhibiting activity on proliferation): > 50% | effect on Bcl-2 expression in medium without estrogen ([2]; treated 48 h): neither tamoxifen nor lasofoxifene affected Bcl-2 expression | inhibition of Bcl-2 expression ([2]; MCF-7, medium with insulin and 10% FBS 72 h, treated 48 h, 2.5 μM LAS vs 2.5 μM TAM, FIG. 2C): weaker activity to inhibit Bcl-2 expression compared with tamoxifen | dose dependence of Bcl-2 expression inhibition ([2]; MCF-7, medium with insulin and 10% FBS, 48 h, FIG. 2D): inhibited Bcl-2 expression in a dosage dependent manner | affinity for ER-α relative to those reported for raloxifene and tamoxifen (ER-α; higher affinity than raloxifene and tamoxifen, Gennari 2006): at least 10 fold | binding affinity to ER-αLBD (ER-α; reported value): 1.5 nM | proliferation of Herceptin-resistance BT474 cells [3]: Sensitive response | cytosolic [Ca2+]i (GPER1): significantly enhanced cytosolic [Ca^2+]i | gastric cancer cell division (gastric cancer cells): inhibited gastric cancer cell division | colon cancer cell division (colon cancer cells): inhibited colon cancer cell division | proliferation of triple negative breast cancer cells [4]: the same lasofoxifene activity was also found | proliferation of HBE cells (HBE cells): Neither tamoxifen nor lasofoxifene affected the proliferation of HBE cells | proliferation of H1299 cells (H1299 cells; 2 μM, ER-α36 high, weak EGFR, FIG. 5-D): inhibited | inhibition of MCF-7 cell division, without vs with insulin (IC50 comparison) (MCF-7 cells): more effectively inhibited divisions of MCF-7 cell which positively expressed ER-α36 | affinity for ER-β relative to those reported for raloxifene and tamoxifen (ER-β): at least 10 fold | proliferation of H460 cells (H460 cells): inhibited

SMILES: O=C(c1ccc(OCCN2CCCCC2)cc1)c1c(-c2ccc(O)cc2)sc2cc(O)ccc12 [raloxifene]
cytosolic [Ca2+]i (GPER1): significantly enhanced cytosolic [Ca^2+]i

inhibition of MCF-7 cell division, without vs with insulin (IC50 comparison) (MCF-7 cells): exerted the opposite effect
SMILES: CC/C(=C(\c1ccccc1)c1ccc(OCCN(C)C)cc1)c1ccccc1 [tamoxifen]
inhibiting activity on proliferation ([1]; 2 μM, MCF-7 induced by tamoxifen for over 10 months): did not inhibit MCF-7 cell proliferation | effect on Bcl-2 expression in medium without estrogen ([2]; treated 48 h): neither tamoxifen nor lasofoxifene affected Bcl-2 expression | proliferation of HBE cells (HBE cells): Neither tamoxifen nor lasofoxifene affected the proliferation of HBE cells | proliferation of H460 cells (H460 cells): exhibited opposite effect
